Assay results reported in PubChem BioAssay AID2060899 (Molecular Pharmacology Branch, DTP, NCI, 2025).
Each block holds one molecule with its values, some of them ahead of it.

Test system: 565726-208-R1-J5-PDC complex spheroids, growth inhibition
Assay: Anticancer human tumor 565726-208-R1-J5-PDC patient-derived pancreatic adenocarcinoma cell line growth inhibition [RAS]
Details: for viability, T/C: stronger effect = lower value
Outline: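 Tumour cells grown as complex spheroids with HUVEC endothelial cells and mesenchymal stem cells, treated with RAS pathway inhibitor combinations. Each agent spans half-log steps from near clinical Cmax, or 10 microM where Cmax is unknown.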

[1] = curve of first compound, second compound 0.000949 µM
[2] = curve of first compound, second compound 0.003 µM
[3] = curve of first compound, second compound 0.00949 µM
[4] = curve of first compound, second compound 0.03 µM
[5] = curve of first compound, second compound 0.0949 µM
[6] = curve of first compound, second compound 0.3 µM
[7] = second compound 0.000949 µM, first compound 0.0316 µM
[8] = second compound 0.000949 µM, first compound 0.1 µM
[9] = second compound 0.000949 µM, first compound 0.316 µM
[10] = second compound 0.000949 µM, first compound 1 µM
[11] = second compound 0.003 µM, first compound 0.0316 µM
[12] = second compound 0.003 µM, first compound 0.1 µM
[13] = second compound 0.003 µM, first compound 0.316 µM
[14] = second compound 0.003 µM, first compound 1 µM
[15] = second compound 0.00949 µM, first compound 0.0316 µM
[16] = second compound 0.00949 µM, first compound 0.1 µM
[17] = second compound 0.00949 µM, first compound 0.316 µM
[18] = second compound 0.00949 µM, first compound 1 µM
[19] = second compound 0.03 µM, first compound 0.0316 µM
[20] = second compound 0.03 µM, first compound 0.1 µM
[21] = second compound 0.03 µM, first compound 0.316 µM
[22] = second compound 0.03 µM, first compound 1 µM
[23] = second compound 0.0949 µM, first compound 0.0316 µM
[24] = second compound 0.0949 µM, first compound 0.1 µM
[25] = second compound 0.0949 µM, first compound 0.316 µM
[26] = second compound 0.0949 µM, first compound 1 µM
[27] = second compound 0.3 µM, first compound 0.0316 µM
[28] = second compound 0.3 µM, first compound 0.1 µM
[29] = second compound 0.3 µM, first compound 0.316 µM
[30] = second compound 0.3 µM, first compound 1 µM
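Note: spheroids exposed to compounds for seven days before readout.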
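Throughout, for viability, T/C: 100% = DMSO vehicle control viability.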

SMILES: CC(C)NCC(C(=O)N1CCN(c2ncnc3c2C(C)CC3O)CC1)c1ccc(Cl)cc1 (stereo not drawn) + CCn1c(-c2cccnc2C(C)OC)c2c3cc(ccc31)N1CCOC(CC(NC(=O)C(C(C)C)N(C)C(=O)C3(F)CCN(C(=O)C#CC(C)(C)N(C)C)CC3)C(=O)N3CCCC(N3)C(=O)OCC(C)(C)C2)C1
- IC50 [1]: > 10 µM
- IC50 [2]: > 10 µM
- IC50 [3]: > 10 µM
- IC50 [4]: > 10 µM
- IC50 [5]: > 10 µM
- IC50 [6]: 7.56 µM
- viability, T/C [7]: 106%
- viability, T/C [8]: 94.1%
- viability, T/C [9]: 97.6%
- viability, T/C [10]: 85.1%
- viability, T/C (second compound 0.000949 µM, first compound 3.16 µM): 74%
- viability, T/C (second compound 0.000949 µM, first compound 10 µM): 56.6%
- viability, T/C [11]: 105%
- viability, T/C [12]: 99.2%
- viability, T/C [13]: 105%
- viability, T/C [14]: 94.7%
- viability, T/C (second compound 0.003 µM, first compound 3.16 µM): 84.2%
- viability, T/C (second compound 0.003 µM, first compound 10 µM): 59.4%
- viability, T/C [15]: 96%
- viability, T/C [16]: 104%
- viability, T/C [17]: 94.3%
- viability, T/C [18]: 99.8%
- viability, T/C (second compound 0.00949 µM, first compound 3.16 µM): 88.1%
- viability, T/C (second compound 0.00949 µM, first compound 10 µM): 57.1%
- viability, T/C [19]: 101%
- viability, T/C [20]: 95.5%
- viability, T/C [21]: 106%
- viability, T/C [22]: 89.4%
- viability, T/C (second compound 0.03 µM, first compound 3.16 µM): 84.4%
- viability, T/C (second compound 0.03 µM, first compound 10 µM): 56.5%
- viability, T/C [23]: 93.5%
- viability, T/C [24]: 98.8%
- viability, T/C [25]: 96.9%
- viability, T/C [26]: 86.5%
- viability, T/C (second compound 0.0949 µM, first compound 3.16 µM): 85.5%
- viability, T/C (second compound 0.0949 µM, first compound 10 µM): 57.7%
- viability, T/C [27]: 95.2%
- viability, T/C [28]: 87%
- viability, T/C [29]: 85.8%
- viability, T/C [30]: 80.8%
- viability, T/C (second compound 0.3 µM, first compound 3.16 µM): 70.7%
- viability, T/C (second compound 0.3 µM, first compound 10 µM): 43.2%

SMILES: CCc1c2c(nc3ccc(O)cc13)-c1cc3c(c(=O)n1C2)COC(=O)[C@]3(O)CC
- viability, T/C (compound 0.000949 µM): 77.2% [middle of 4 runs]
- viability, T/C (compound 0.00949 µM): 34.4% [middle of 4 runs]
- viability, T/C (compound 0.03 µM): 19.3% [middle of 4 runs]
- viability, T/C (compound 0.0949 µM): 12.7% [middle of 4 runs]
- viability, T/C (compound 0.3 µM): 7.31% [middle of 4 runs]
- IC50 (curve of compound): 2.78 nM [middle of 4 runs]

SMILES: CCn1c(-c2cccnc2C(C)OC)c2c3cc(ccc31)N1CCOC(CC(NC(=O)C(C(C)C)N(C)C(=O)C3(F)CCN(C(=O)C#CC(C)(C)N(C)C)CC3)C(=O)N3CCCC(N3)C(=O)OCC(C)(C)C2)C1 (stereo not drawn)
- viability, T/C (compound 0.000949 µM): 102% [middle of 8 runs]
- viability, T/C (compound 0.003 µM): 99.7% [middle of 8 runs]
- viability, T/C (compound 0.00949 µM): 104% [middle of 8 runs]
- viability, T/C (compound 0.03 µM): 103% [middle of 8 runs]
- viability, T/C (compound 0.0949 µM): 103% [middle of 8 runs]
- viability, T/C (compound 0.3 µM): 90% [middle of 8 runs]
- IC50 (compound alone, run of 07/09/2024): > 0.3 µM

SMILES: NC1c2ccccc2OC12CCN(c1cnc3c(N4CCCc5ncccc54)n[nH]c3n1)CC2 (stereo not drawn)
- viability, T/C (compound 0.0316 µM): 82.2% [middle of 4 runs]
- viability, T/C (compound 0.316 µM): 72.5% [middle of 4 runs]
- viability, T/C (compound 1 µM): 66% [middle of 4 runs]
- IC50 (curve of compound): > 10 µM

Further lines, with some results ahead:

- IC50 (curve of compound): > 1 µM
SMILES: C=CC(=O)Nc1cc(Nc2nccc(-c3cn(C)c4ccccc34)n2)c(OC)cc1N(C)CCN(C)C
- viability, T/C (compound 0.0316 µM): 92.9% [middle of 4 runs]
- viability, T/C (compound 0.1 µM): 85.7% [middle of 4 runs]

- IC50 [1]: > 1 µM
- IC50 [2]: > 1 µM
- IC50 [3]: > 1 µM
- IC50 [4]: > 1 µM
- IC50 [5]: > 1 µM
- IC50 [6]: > 1 µM
SMILES: C=CC(=O)Nc1cc(Nc2nccc(-c3cn(C)c4ccccc34)n2)c(OC)cc1N(C)CCN(C)C + CCn1c(-c2cccnc2C(C)OC)c2c3cc(ccc31)N1CCOC(CC(NC(=O)C(C(C)C)N(C)C(=O)C3(F)CCN(C(=O)C#CC(C)(C)N(C)C)CC3)C(=O)N3CCCC(N3)C(=O)OCC(C)(C)C2)C1
- viability, T/C (second compound 0.000949 µM, first compound 0.00316 µM): 98.1%
- viability, T/C (second compound 0.000949 µM, first compound 0.01 µM): 87.7%
- viability, T/C [7]: 93.8%
- viability, T/C [8]: 79.7%
- viability, T/C [9]: 78.8%
- viability, T/C [10]: 65.2%
- viability, T/C (second compound 0.003 µM, first compound 0.00316 µM): 93.4%
- viability, T/C (second compound 0.003 µM, first compound 0.01 µM): 91%
- viability, T/C [11]: 89%
- viability, T/C [12]: 77.1%
- viability, T/C [13]: 76.4%
- viability, T/C [14]: 57%
- viability, T/C (second compound 0.00949 µM, first compound 0.00316 µM): 99.1%
- viability, T/C (second compound 0.00949 µM, first compound 0.01 µM): 91.6%
- viability, T/C [15]: 83.3%
- viability, T/C [16]: 73.3%
- viability, T/C [17]: 78%
- viability, T/C [18]: 55.8%
- viability, T/C (second compound 0.03 µM, first compound 0.00316 µM): 105%
- viability, T/C (second compound 0.03 µM, first compound 0.01 µM): 107%
- viability, T/C [19]: 94%
- viability, T/C [20]: 81.9%
- viability, T/C [21]: 83.3%
- viability, T/C [22]: 62.2%
- viability, T/C (second compound 0.0949 µM, first compound 0.00316 µM): 96%
- viability, T/C (second compound 0.0949 µM, first compound 0.01 µM): 87%
- viability, T/C [23]: 92.2%
- viability, T/C [24]: 78.8%
- viability, T/C [25]: 81.6%
- viability, T/C [26]: 60.2%
- viability, T/C (second compound 0.3 µM, first compound 0.00316 µM): 88.1%
- viability, T/C (second compound 0.3 µM, first compound 0.01 µM): 78.3%
- viability, T/C [27]: 86.5%
- viability, T/C [28]: 72.7%
- viability, T/C [29]: 70.8%
- viability, T/C [30]: 55.7%

- IC50 (curve of compound): > 1 µM
SMILES: CCN1CCN(Cc2ccc(Nc3ncc(F)c(-c4cc(F)c5nc(C)n(C(C)C)c5c4)n3)nc2)CC1
- viability, T/C (compound 0.00316 µM): 96.8% [middle of 4 runs]
- viability, T/C (compound 0.0316 µM): 81.5% [middle of 4 runs]
- viability, T/C (compound 0.1 µM): 77.8% [middle of 4 runs]
